In patent US8765420B2, “Method for preparing pterocarpan” (priority 2010, dated 2014):

Biological target: T1, biphenyl dioxygenase of P. pseudoalcaligenes KF707 (SEQ ID NO:3) (Metapseudomonas furukawaii, UniProt Q52028)
T1 construct: expressed in transfected cells; host or cells: Escherichia coli JM109 (pJHF108)
Experiment: Biotransformation kinetics by whole cells of E. coli expressing biphenyl dioxygenase
Format: biochemical, Pseudomonas pseudoalcaligenes strain KF707
Details: for Corresponding epoxides produced after 5 h reaction: initial concentration of substrate 250 μM, whole cells of E. coli expressing BDO, 37° C., means of triplicate ± standard errors
Procedure: E. coli JM109 (pJHF108) was seed cultivated in 50 mL of LB medium containing ampicillin […] at 37° C. for 12 hours. The cultivated seed was inoculated to a 5-L fermentor (BioFlo 3000, Korea fermentor Co., Korea) containing 4.5 L of LB medium and […] of ampicillin, and mixed at 37° C. at 200 rpm for 8 hours. The culture broth was centrifuged at 8,000 g for 10 minutes using VS-21SMT centrifuge (Vision Scientific Co., Bucheon, Korea). Cells were washed three times with 100 mM minimal salt buffer and resuspended in the same buffer, adjusting to the optical density at 600 nm using a UV/visible spectrophotometer (Shimadzu, UV-1601PC, Kyoto, Japan).
Analytical HPLC was carried out using a Varian Prostar HPLC apparatus (Walnut Creek, Calif.) equipped with a photodiode array […] detector. For the analysis of isoflavan-4-ol stereoisomers and their metabolites, a Waters Spherisorb ODS-2 column ([…], 4.6 mm×25 cm, Milford, Mass.) was used. The mobile phase was operated as a linear gradient that made up of water-acetonitrile containing 0.1% formic acid (10% acetonitrile at 0 min, 40% acetonitrile at 15 min, 90% acetonitrile at 25 min, and 90% acetonitrile at 40 min). The flow rate was 1 mL/min and UV detection was performed at 270 nm. For the analysis of enantiomers of cis- and trans-isoflavan-4-ol, a Sumi Chiral OA-7000 column (5 mm, 4.6 mm×25 cm, Sumika Chemical Analysis Service, Ltd., Osaka, Japan) and mobile phase composed of 60:40 (v/v) of 20 mM phosphate buffer (pH 3.0) and acetonitrile were used. The flow rate was 1 mL/min and UV detection was performed at 270 nm.
Biotransformation kinetics by whole cells of E. coli expressing biphenyl dioxygenase was performed as follows. The bacterial culture was prepared as described above, resuspended in 50 mL of phosphate buffer containing 1 mM glucose in a 250 mL flask, and adjusted to a final culture concentration of OD 600 nm=0.6. Then, the bacterial culture was incubated with 250 μM each of four purified isoflavan-4-ol stereoisomers ((3S,4S)- and (3R,4R)-cis-isoflavan-4-ols and (3S,4R)- and (3R,4S)-trans-isoflavan-4-ols) on a rotary shaker (200 rpm) at 37° C. The bacterial cultures (2 mL) were extracted with ethyl acetate, and the solvent was evaporated to dryness as described above. Quantification of metabolites and parent compound by using HPLC with time was monitored in triplicate experiments. Due to the instability of metabolites which were produced from parent compound, the quantity was calculated from the peak area as compared to the standard curve of the parent compound.

T1 sequence (Q52028 whole entry M237T/S238T/M247I/H255Q/V258I/G268A/F277Y/M283S/M285L/D303E/T340I): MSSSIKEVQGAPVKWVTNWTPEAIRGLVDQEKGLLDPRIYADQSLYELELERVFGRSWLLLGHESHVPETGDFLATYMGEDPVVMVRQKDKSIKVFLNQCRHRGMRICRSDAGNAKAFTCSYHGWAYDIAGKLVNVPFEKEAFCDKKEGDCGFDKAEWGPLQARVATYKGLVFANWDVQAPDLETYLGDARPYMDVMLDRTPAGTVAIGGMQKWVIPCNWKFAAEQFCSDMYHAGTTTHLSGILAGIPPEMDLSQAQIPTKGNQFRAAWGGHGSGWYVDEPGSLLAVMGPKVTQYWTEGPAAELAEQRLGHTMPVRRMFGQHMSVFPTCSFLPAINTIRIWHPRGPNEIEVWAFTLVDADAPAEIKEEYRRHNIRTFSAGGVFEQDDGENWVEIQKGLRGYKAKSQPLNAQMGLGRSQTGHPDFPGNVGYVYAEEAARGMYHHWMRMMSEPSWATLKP

SMILES | Corresponding epoxides produced after 5 h reaction [µM] | Corresponding epoxides produced after 5 h reaction (listed as Trans-isoflavan-4-ol (3R,4S)) [µM] | Corresponding epoxides produced after 5 h reaction (listed as Trans-isoflavan-4-ol (3S,4R)) [µM] | epoxide production relative to that from (3R,4R)-cis-isoflavan-4-ol (after 5 h of reaction)
O[C@H]1c2ccccc2OC[C@H]1c1ccccc1 (stereo in doubt) [(3R,4R)-cis-isoflavan-4-ol] | 40 ± 4.0 | – | – | –
O[C@@H]1c2ccccc2OC[C@H]1c1ccccc1 (stereo in doubt) [(3R,4S)-trans-isoflavan-4-ol] | 163.3 | 163.3 ± 6.8 | – | –
O[C@H]1c2ccccc2OC[C@@H]1c1ccccc1 (stereo in doubt) [(3S,4R)-trans-isoflavan-4-ol] | 141.1 | – | 141.1 ± 6.2 | –
O[C@@H]1c2ccccc2OC[C@@H]1c1ccccc1 (stereo in doubt) [(3S,4S)-cis-isoflavan-4-ol] | 194.8 ± 5.5 | – | – | about 4.8 fold
